These results are taken from patent publication US7863449B2, “Modulators of muscarinic receptors” (Vertex Pharmaceuticals Incorporated, priority 2004, dated 2011).

In assay [1] the target is T1, M1 muscarinic receptor (Homo sapiens, UniProt P11229).
T1 construct: expressed in transfected cells; host or cells: CHO (M1-CHO)
T1 sequence (P11229 1-460): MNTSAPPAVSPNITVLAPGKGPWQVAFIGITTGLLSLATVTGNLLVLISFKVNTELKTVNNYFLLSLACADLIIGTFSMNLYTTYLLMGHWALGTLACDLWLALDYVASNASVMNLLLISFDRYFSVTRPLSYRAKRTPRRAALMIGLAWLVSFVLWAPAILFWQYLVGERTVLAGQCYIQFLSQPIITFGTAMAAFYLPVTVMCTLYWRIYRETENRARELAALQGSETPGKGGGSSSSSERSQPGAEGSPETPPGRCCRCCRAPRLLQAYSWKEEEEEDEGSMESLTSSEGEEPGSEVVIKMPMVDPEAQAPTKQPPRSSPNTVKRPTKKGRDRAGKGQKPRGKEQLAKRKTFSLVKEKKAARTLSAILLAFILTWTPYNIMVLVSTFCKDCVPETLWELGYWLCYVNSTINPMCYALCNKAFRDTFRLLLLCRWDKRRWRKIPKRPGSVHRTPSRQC
In words: Functional mobilization of intracellular calcium (FLIPR), M1-CHO cells. In kind it is cell-based. As to conditions: for Emax: 100% efficacy is the maximum response obtained using Carbachol as a control; for M1 Activity: M1-CHO cells, FLIPR calcium mobilization. In a few lines: (§1)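 Calcium flux recorded 60 s (ex 488, em 540 nm) in dye-loaded M1- or M4-CHO cells in pH 7.4 buffer with 1 mM probenecid. Inhibition measured against carbachol EC80 after 15 min compound pre-incubation or co-addition; agonism measured by compound addition alone. Final DMSO 0.5%.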
A general note: Calcium assays in cells follow changes in intracellular calcium, usually with a dye or a luminescent sensor.

The target in assay [2] is T2, M4 muscarinic receptor (Homo sapiens, UniProt P08173).
T2 construct: expressed in transfected cells; host or cells: CHO (M4-CHO)
T2 sequence (P08173 1-479): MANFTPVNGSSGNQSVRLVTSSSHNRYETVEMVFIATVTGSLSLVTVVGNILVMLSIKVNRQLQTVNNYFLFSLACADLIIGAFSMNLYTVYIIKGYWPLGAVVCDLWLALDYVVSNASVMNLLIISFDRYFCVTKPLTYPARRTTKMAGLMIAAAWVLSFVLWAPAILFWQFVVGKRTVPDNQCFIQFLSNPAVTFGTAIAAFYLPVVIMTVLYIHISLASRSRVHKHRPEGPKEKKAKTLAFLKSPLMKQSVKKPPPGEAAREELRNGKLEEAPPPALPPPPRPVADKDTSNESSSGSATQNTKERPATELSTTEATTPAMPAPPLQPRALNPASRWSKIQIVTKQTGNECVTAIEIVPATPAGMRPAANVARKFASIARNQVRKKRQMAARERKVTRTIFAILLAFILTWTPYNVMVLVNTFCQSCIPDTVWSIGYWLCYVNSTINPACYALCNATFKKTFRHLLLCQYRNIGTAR
As to the kind of experiment: Functional mobilization of intracellular calcium (FLIPR), M4-CHO cells. Type of assay: cell-based. The settings on record: for Emax: 100% efficacy is the maximum response obtained using Carbachol as a control; for M4 Activity: M4-CHO cells, FLIPR calcium mobilization. Summed up:
as §1

One may read the Emax as the greatest response seen or fitted, relative to the assay's reference. For the compound `CCOC(=O)N1C2CCC1CC(N1CCC3(CC1)CN(C(=O)c1cc(C)oc1C)Cc1ccccc13)C2` (stereo not shown) [compound 149], in assay [1], the Emax is under 25% and the “M1 Activity” value was “+ (activity was measured to be greater than 5.0 μM)”. For the same compound, in assay [2], the Emax lay within 25 to 100% and the “M4 Activity” value is on record as “+++ (activity was measured to be less than 1.0 μM)”.
As for `COc1ccccc1CN1CCC2(CC1)CN(C(C)=O)Cc1ccccc12` [compound 150], in assay [1], the maximal response (Emax) is under 25% and the “M1 Activity” value was “+ (activity was measured to be greater than 5.0 μM)”. Further, in assay [2], the Emax was under 25% and the “M4 Activity” value is reported as “+ (activity was measured to be greater than 5.0 μM)”.
For the compound `CCOC(=O)N1CCC(N2CCC3(CC2)CN(C(=O)c2ccccn2)Cc2ccccc23)CC1` [compound 151], in assay [1], the Emax fell in the range of 25 to 100% and the “M1 Activity” value is “+++ (activity was measured to be less than 1.0 μM)”. For the same compound, in assay [2], the Emax lay within 25 to 100% and the “M4 Activity” value is given as “+++ (activity was measured to be less than 1.0 μM)”.
`CC(=O)N1Cc2ccccc2C2(CCN(Cc3ccccc3Cl)CC2)C1` [compound 152]: in assay [1], the maximum response (Emax) is under 25% and the “M1 Activity” value was “+ (activity was measured to be greater than 5.0 μM)”. Moreover, in assay [2], the Emax was in the range of 25 to 100% and the “M4 Activity” value is “++ (activity was measured to be from 1.0 μM to 5.0 μM)”.
For `CC(=O)N1Cc2ccccc2C2(CCN(C3CCC(=O)CC3)CC2)C1` [compound 153], in that order: 25 to 100%, “+ (activity was measured to be greater than 5.0 μM)”, 25 to 100% and “++ (activity was measured to be from 1.0 μM to 5.0 μM)”.
For `CC(C)OC(=O)N1C2CCC1CC(N1CCC3(CC1)CN(S(C)(=O)=O)Cc1ccccc13)C2` (stereo not shown) [compound 154], in that order: 25 to 100%, “+++ (activity was measured to be less than 1.0 μM)”, 25 to 100% and “+++ (activity was measured to be less than 1.0 μM)”.
For `CCOC(=O)N1CCC(CN2CCC3(CC2)CN(S(=O)(=O)c2c(C)noc2C)Cc2ccccc23)CC1` [compound 155], in that order: 25 to 100%, “+++ (activity was measured to be less than 1.0 μM)”, 25 to 100% and “+++ (activity was measured to be less than 1.0 μM)”.
Consider `C#CCOC(=O)N1C2CCC1CC(N1CCC3(CC1)CN(C(C)=O)Cc1ccccc13)C2` (stereo not shown) [compound 156], for which, in assay [1], the Emax lay in the range of 25 to 100% and the “M1 Activity” value was “+++ (activity was measured to be less than 1.0 μM)”. Further, in assay [2], the Emax was in the range of 25 to 100% and the “M4 Activity” value is reported as “+++ (activity was measured to be less than 1.0 μM)”.
Take `COCCOC(=O)N1Cc2ccccc2C2(CCN(C3CC4CCC(C3)N4C(=O)OC(C)C)CC2)C1` (stereo not shown) [compound 157]: in assay [1], the Emax was in the range of 25 to 100% and the “M1 Activity” value is “+++ (activity was measured to be less than 1.0 μM)”. Moreover, in assay [2], the Emax lay in the range of 25 to 100% and the “M4 Activity” value was “+++ (activity was measured to be less than 1.0 μM)”.
For `COCCOC(=O)N1CCC(N2CCC3(CC2)CN(C(C)=O)Cc2ccccc23)CC1` [compound 158], in assay [1], the Emax lay in the range of 25 to 100% and the “M1 Activity” value was “+++ (activity was measured to be less than 1.0 μM)”. In addition, in assay [2], the maximal response (Emax) lay within 25 to 100% and the “M4 Activity” value is recorded as “+++ (activity was measured to be less than 1.0 μM)”.
On to `CCOC(=O)N1C2CCC1CC(N1CCC3(CC1)CN(c1cccc(F)c1)Cc1ccccc13)C2` (stereo not shown) [compound 159], for which, in assay [1], the maximum response (Emax) was over 100% and the “M1 Activity” value is reported as “+++ (activity was measured to be less than 1.0 μM)”. Moreover, in assay [2], the Emax lay in the range of 25 to 100% and the “M4 Activity” value was “+++ (activity was measured to be less than 1.0 μM)”.
Consider `CC(=O)N1Cc2ccccc2C2(CCN(CC3CCN(C(=O)OC(C)C)CC3)CC2)C1` [compound 161], for which, in assay [1], the Emax lay within 25 to 100% and the “M1 Activity” value is given as “++ (activity was measured to be from 1.0 μM to 5.0 μM)”. In addition, in assay [2], the Emax is under 25% and the “M4 Activity” value is on record as “+++ (activity was measured to be less than 1.0 μM)”.
Taken in the same sequence, the figures for `CCOC(=O)N1C2CCC1CC(N1CCC3(CC1)CN(C(=O)CC(C)(C)C)Cc1ccccc13)C2` (stereo not shown) [compound 162] were 25 to 100%, “+++ (activity was measured to be less than 1.0 μM)”, 25 to 100% and “+++ (activity was measured to be less than 1.0 μM)”.
For `CCOC(=O)N1CCC(N2CCC3(CC2)CN(C(=O)NC2CCCCC2)Cc2ccccc23)CC1` [compound 163], in that order: 25 to 100%, “+++ (activity was measured to be less than 1.0 μM)”, 25 to 100% and “+++ (activity was measured to be less than 1.0 μM)”.
For `CCOC(=O)N1CCC(N2CCC3(CC2)CN(C(=O)OC2CCCC2)Cc2ccccc23)CC1` [compound 164], in that order: 25 to 100%, “+++ (activity was measured to be less than 1.0 μM)”, 25 to 100% and “+++ (activity was measured to be less than 1.0 μM)”.
Turning to `CCOC(=O)N1CCC(N2CCC3(CC2)CN(C(=O)OC(C)C)Cc2ccccc23)CC1` [compound 166], in assay [1], the Emax is 25 to 100% and the “M1 Activity” value is “+++ (activity was measured to be less than 1.0 μM)”. Also, in assay [2], the Emax lay in the range of 25 to 100% and the “M4 Activity” value was “+++ (activity was measured to be less than 1.0 μM)”.
For the compound `CCOC(=O)N1CCC(N2CCC3(CC2)CN(Cc2ccccc2)Cc2ccccc23)CC1` [compound 167], in assay [1], the Emax was 25 to 100% and the “M1 Activity” value was “++ (activity was measured to be from 1.0 μM to 5.0 μM)”. Also, in assay [2], the Emax is under 25% and the “M4 Activity” value is “+++ (activity was measured to be less than 1.0 μM)”.
For `CCNC(=O)N1Cc2ccccc2C2(CCN(C3CCN(C(=O)OCC)CC3)CC2)C1` [compound 168], in that order: 25 to 100%, “+++ (activity was measured to be less than 1.0 μM)”, 25 to 100% and “+++ (activity was measured to be less than 1.0 μM)”.
For `CC(=O)N1Cc2ccccc2C2(CCN(C3C4CC5CC(C4)CC3C5)CC2)C1` (stereo not shown) [compound 170], in that order: 25 to 100%, “+++ (activity was measured to be less than 1.0 μM)”, 25 to 100% and “+++ (activity was measured to be less than 1.0 μM)”.
With `CCOC(=O)N1CCC(CN2CCC3(CC2)CN(C(=O)Nc2c(C)noc2C)Cc2ccccc23)CC1` [compound 171], in assay [1], the Emax lay in the range of 25 to 100% and the “M1 Activity” value was “+++ (activity was measured to be less than 1.0 μM)”. In addition, in assay [2], the Emax is 25 to 100% and the “M4 Activity” value is “+++ (activity was measured to be less than 1.0 μM)”.
As for `CCOC(=O)N1CCC(N2CCC3(CC2)CN(C2CCCCCC2)Cc2ccccc23)CC1` [compound 172, Ethyl 4-(2-cycloheptyl-2,3-dihydro-1H-spiro[isoquinoline-4,4-piperidine]-1′-yl)piperidine-1-carboxylate], the Emax in assay [1] and in assay [2] was 25 to 100% in each case.
Take `CCOC(=O)N1CCC(N2CCC3(CC2)CN(S(=O)(=O)N(C)C)Cc2ccccc23)CC1` [compound 176]: in assay [1], the maximal response (Emax) fell in the range of 25 to 100% and the “M1 Activity” value is on record as “+++ (activity was measured to be less than 1.0 μM)”. Also, in assay [2], the Emax lay in the range of 25 to 100% and the “M4 Activity” value is listed as “+++ (activity was measured to be less than 1.0 μM)”.
Consider `CC(=O)N1Cc2ccccc2C2(CCN(C3CCN(C(=O)OC(C)(C)C)CC3)CC2)C1` [compound 177], for which, in assay [1], the maximal response (Emax) lay within 25 to 100% and the “M1 Activity” value was “+++ (activity was measured to be less than 1.0 μM)”. Further, in assay [2], the Emax is under 25% and the “M4 Activity” value was “+ (activity was measured to be greater than 5.0 μM)”.
For `CCOC(=O)N1CCC(N2CCC3(CC2)CN(C(=O)C2(C)CCCCC2)Cc2ccccc23)CC1` [compound 178], in that order: 25 to 100%, “+++ (activity was measured to be less than 1.0 μM)”, under 25% and “+ (activity was measured to be greater than 5.0 μM)”.
